Measured values as given in patent US8835485B2, “Prevention and treatment of sarcopenia” (PsiOxus Therapeutics Limited, priority 2009, dated 2014).

Key:
[1] = tested on: Young, healthy, male Wistar Han rats; test: S-Pindolol in young healthy rats, 16 days: body weight, lean mass, organ weights; type: in vivo, rat; details: for Gastrocnemius organ weight at the end of the study: gavage once daily, placebo 1234 ± 30; for Soleus organ weight at the end of the study / EDL organ weight at the end of the study / Tibialis organ weight at the end of the study: gavage; for Soleus organ weight at the end of the study: placebo 97 ± 2; for EDL organ weight at the end of the study: placebo 104 ± 3; for Tibialis organ weight at the end of the study: placebo 447 ± 9; for EDL percent increase in weight / Soleus percent increase in weight: versus placebo
Procedure: Young, healthy, male Wistar Han rats (201.8±2.4 g) were housed in groups of two to three per cage under standard conditions. Animals were randomized to receive either 0.3 mg S-Pindolol/kg/d (n=5), 3 mg S-Pindolol/kg/d (n=5) or placebo (n=16) once daily per gavage for 16 days. Body composition (lean mass) of the animals was analyzed using the EchoMRI-700 system (Echo Medical Systems, Houston, Tex., USA) before treatment and at the end of the study. Body weight was recorded before treatment and at the end of study. Organ weights were recorded at the end of study.

healthy subjects = details: cited from earlier work
[2] = tested on: Old, healthy, male Wistar Han rats; test: S-Pindolol in old (19 month) rats, 28 days: body weight, lean mass, organ weights; type: in vivo, rat; details: 3 mg/kg/d
Procedure: Old, healthy, male Wistar Han rats (age 19 month, at the start of the experiment) were housed in groups of two to three per cage under standard laboratory conditions. Animals were randomized to receive either 3 mg/kg/d S-Pindolol/kg/d (n=8), or placebo (n=14) once daily per gavage for 28 days. Body composition (lean mass) of the animals was analyzed using the EchoMRI-700 system (Echo Medical Systems, Houston, Tex., USA) before treatment, once per week during the study and at the end of the study. Body weight was recorded before treatment, once per week during the study and at the end of study. Organ weights were recorded at the end of study. One tibialis muscle per animals was dried at 60° C. for 48 h.

5-HT1a receptor = biological target: T1, 5-HT1a receptor (Homo sapiens, UniProt P08908); details: functional tests; cited from earlier work
T1 sequence (P08908 1-422): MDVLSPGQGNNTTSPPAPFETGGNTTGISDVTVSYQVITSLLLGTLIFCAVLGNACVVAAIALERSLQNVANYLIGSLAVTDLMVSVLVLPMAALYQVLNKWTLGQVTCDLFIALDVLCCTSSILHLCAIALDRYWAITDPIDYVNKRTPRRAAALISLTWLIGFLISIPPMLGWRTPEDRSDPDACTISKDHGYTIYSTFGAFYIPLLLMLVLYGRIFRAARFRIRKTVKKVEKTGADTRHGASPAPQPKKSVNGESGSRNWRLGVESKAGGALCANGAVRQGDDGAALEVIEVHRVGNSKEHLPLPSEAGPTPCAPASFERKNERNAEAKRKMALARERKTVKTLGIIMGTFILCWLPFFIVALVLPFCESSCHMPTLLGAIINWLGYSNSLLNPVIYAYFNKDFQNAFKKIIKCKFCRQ

## CC(C)NC[C@H](O)COc1cccc2[nH]ccc12 [S-Pindolol, S-(−)-1-(1H-indol-4-yloxy)-3-(1-methylethylamino)propan-2-ol]
[1]; 0.3 mg/kg/d
  Gastrocnemius organ weight at the end of the study: 1420 ± 35 mg
  Soleus organ weight at the end of the study: 107 ± 2 mg
  EDL organ weight at the end of the study: 124 ± 6 mg
  Tibialis organ weight at the end of the study: 526 ± 15 mg
  EDL percent increase in weight: +19.2%
  Soleus percent increase in weight: +10.3%
[1]; 3 mg/kg/d
  Gastrocnemius organ weight at the end of the study: 1492 ± 37 mg
  Soleus organ weight at the end of the study: 103 ± 3 mg
  EDL organ weight at the end of the study: 126 ± 4 mg
  Tibialis organ weight at the end of the study: 535 ± 22 mg
  EDL percent increase in weight: +21.1%
  Soleus percent increase in weight: +6.2%
[1]; 0.3 and 3 mg/kg/d, EchoMRI, FIG. 2
  Lean body mass (i.e. muscle mass): dose dependently increased
[1]; high dose (3 mg/kg/d), FIG. 1, p=0.0002 vs placebo
  Body weight (weight gain during treatment): significantly increased
Healthy subjects; in vivo
  Alteration in blood pressure: no alteration
[2]; gavage, old rats, placebo 827 ± 34
  Tibialis organ weight at the end of the study: 1034 ± 46 mg
[2]; gavage, old rats, placebo 2283 ± 78
  Gastrocnemius organ weight at the end of the study: 2914 ± 133 mg
[2]; old rats, EchoMRI, FIGS. 7, 8
  Lean body mass (i.e. muscle mass): increased
[2]; old rats, FIGS. 4, 5
  Body weight (change during the treatment period): significantly increased
[2]; old rats, dried at 60° C. for 48 h, placebo 227 ± 9
  Tibialis dry mass: 276 ± 12 mg
[2]; old rats, placebo 27.89 ± 0.78
  Tibialis dry mass: 27.12 ± 0.46%
[2]; old rats, placebo 72.1 ± 0.78
  Tibialis water: 72.88 ± 0.46%
[2]; old rats, placebo 181 ± 11
  Soleus organ weight at the end of the study: 173 ± 9 mg
[2]; old rats, placebo 197 ± 9
  EDL organ weight at the end of the study: 236 ± 5 mg
[2]; senile rats, placebo lost 1.5%
  Lean mass increase compared to baseline: 12.7%

## CC(C)NCC(O)COc1cccc2[nH]ccc12 (racemic) [racemic pindolol]
Healthy subjects; healthy subjects, similar dose
  Effect on diastolic blood pressure: reducing

## CC(C)NC[C@@H](O)COc1cccc2ccccc12 [(R)-propranolol]
5-HT1a receptor
  Block of the suppressant effects of 5-HT1a agonists on dorsal raphe neuronal firing: not

## CC(C)NC[C@H](O)COc1cccc2ccccc12 [(S)-propranolol, (S)-1-isopropylamino-3-(1-naphthyloxy)-2-propanol]
5-HT1a receptor
  Block of the suppressant effects of 5-HT1a agonists on dorsal raphe neuronal firing: blocked
